Measured values from PubChem BioAssay (NCI).
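Grown in 96-well plates, cells were treated for 48 hours with each compound at five concentrations. Insufficient inhibition: endpoint recorded as highest concentration tested. GI50 is the concentration that inhibits growth by half. TGI is the concentration that stops growth completely.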

Legend:
Experiment in all cases: DTP human tumour cell line panel, 48 h; in the data active means GI50 below about 0.43 µM; inactive means the rest
MDA-MB-231 breast = test system: MDA-MB-231 breast
OVCAR-4 ovarian = test system: OVCAR-4 ovarian
U251 CNS = test system: U251 CNS
MDA-MB-435 = test system: MDA-MB-435
OVCAR-5 ovarian = test system: OVCAR-5 ovarian
MDA-MB-468 breast = test system: MDA-MB-468 breast
HT29 colon = test system: HT29 colon
HL-60(TB) leukemia = test system: HL-60(TB) leukemia
SNB-75 CNS = test system: SNB-75 CNS
TK-10 renal = test system: TK-10 renal
BT-549 breast = test system: BT-549 breast
COLO 205 colon = test system: COLO 205 colon
MOLT-4 leukemia = test system: MOLT-4 leukemia
RPMI-8226 leukemia = test system: RPMI-8226 leukemia
EKVX NSCLC = test system: EKVX NSCLC
MCF7 breast = test system: MCF7 breast
ACHN renal = test system: ACHN renal
NCI-H522 lung = test system: NCI-H522 lung
SK-MEL-5 melanoma = test system: SK-MEL-5 melanoma
HOP-92 NSCLC = test system: HOP-92 NSCLC
HCT-116 colon = test system: HCT-116 colon
NCI-H226 lung = test system: NCI-H226 lung
K-562 leukemia = test system: K-562 leukemia
M14 melanoma = test system: M14 melanoma
RXF 393 renal = test system: RXF 393 renal
A549 NSCLC = test system: A549 NSCLC
SF-539 CNS = test system: SF-539 CNS
T-47D breast = test system: T-47D breast
OVCAR-8 ovarian = test system: OVCAR-8 ovarian
786-0 renal = test system: 786-0 renal

COc1cc2c(c(OC)c1OC)C(=O)CC(c1cccc(NC(=O)c3cccc([N+](=O)[O-])c3)c1)O2 (centres undefined)
> 100 µM: TGI (MDA-MB-231 breast) | TGI (OVCAR-4 ovarian) | TGI (U251 CNS) | TGI (OVCAR-5 ovarian) | TGI (HT29 colon) | TGI (SNB-75 CNS) | TGI (TK-10 renal) | TGI (COLO 205 colon) | TGI (MOLT-4 leukemia) | TGI (EKVX NSCLC) | TGI (MCF7 breast) | TGI (ACHN renal) | TGI (HOP-92 NSCLC) | TGI (HCT-116 colon) | TGI (NCI-H226 lung) | TGI (K-562 leukemia) | TGI (M14 melanoma) | TGI (RXF 393 renal) | TGI (A549 NSCLC) | TGI (SF-539 CNS) | TGI (T-47D breast) | TGI (OVCAR-8 ovarian)
8.94 µM: TGI (MDA-MB-468 breast)
57.7 µM: TGI (BT-549 breast)
48.6 µM: TGI (RPMI-8226 leukemia)
49.8 µM: TGI (NCI-H522 lung)
21.5 µM: TGI (MDA-MB-435)
inactive: GI50 (MDA-MB-231 breast) 18.8 µM | GI50 (OVCAR-4 ovarian) 7.98 µM | GI50 (U251 CNS) 20.1 µM | GI50 (MDA-MB-435) 4.3 µM | GI50 (OVCAR-5 ovarian) 74.6 µM | GI50 (MDA-MB-468 breast) 2.07 µM | GI50 (HT29 colon) 26.8 µM | GI50 (HL-60(TB) leukemia) 3.84 µM | GI50 (SNB-75 CNS) 7.73 µM | GI50 (TK-10 renal) 51.6 µM | GI50 (BT-549 breast) 5 µM | GI50 (COLO 205 colon) 28 µM | GI50 (MOLT-4 leukemia) 3.93 µM | GI50 (RPMI-8226 leukemia) 3.24 µM | GI50 (EKVX NSCLC) > 100 µM | GI50 (MCF7 breast) 6.99 µM | GI50 (ACHN renal) 21.5 µM | GI50 (NCI-H522 lung) 4.65 µM | GI50 (SK-MEL-5 melanoma) 6.3 µM | GI50 (HOP-92 NSCLC) 4.29 µM | GI50 (HCT-116 colon) 9.24 µM | GI50 (NCI-H226 lung) 5.77 µM | GI50 (K-562 leukemia) 6.03 µM | GI50 (M14 melanoma) 19.2 µM | GI50 (RXF 393 renal) 3.62 µM | GI50 (A549 NSCLC) 21.7 µM | GI50 (SF-539 CNS) 29.3 µM | GI50 (T-47D breast) 3.74 µM | GI50 (OVCAR-8 ovarian) 4.62 µM | GI50 (786-0 renal) 47.9 µM
29.1 µM: TGI (HL-60(TB) leukemia)
46.7 µM: TGI (SK-MEL-5 melanoma)
